From US6864061B2, “Method for screening compounds for anti-inflammatory activity” (GeneTrol Biotherapeutics, Inc., priority 2000, dated 2005)

Tests used:
Format in all cases: cell-based, human
[1] = system: PKR-overexpressing Namalwa cells (Nam-PKR), TNF-alpha production; experiment: TNF-alpha production in PMA/poly I:C-induced PKR-overexpressing Namalwa cells (ELISA); conditions: 1 mM 2-AP, 20 mM PMA priming 20 hr, 200 μg/ml poly I:C induction 3 days, FIG. 2A
Method: (§1) PKR-transfected Namalwa cells (Nam-PKR) were cultured at 2.5×10^5 cells/ml in DMEM/F12 medium supplemented with 10% FBS. The cells were treated with 20 mM PMA (priming) for 20 hr followed by treatment with 200 μg/ml poly I:C (induction) for 3 days in the presence of 1 mM 2-aminopurine (2-AP) or in the absence of 2-AP. One set of cells was left untreated (non-induced controls). Following treatment, the culture supernatants were collected and analyzed for TNF-alpha or for TNF-beta by ELISA according to the procedure provided by the supplier of the ELISA kits (R&D Systems). The data for cytokine induction is shown in FIGS. 2A and 2B, which illustrates that the PKR-overexpressing Namalwa cell line produces a high level of proinflammatory cytokine (TNF-alpha) under induction conditions (FIG. 2A) and that the induced levels of TNF-alpha are about 4-fold lower in the presence of the PKR inhibitor, 2-AP.

[2] = system: PKR-overexpressing Namalwa cells (Nam-PKR), TNF-beta production; experiment: TNF-beta production in PMA/poly I:C-induced PKR-overexpressing Namalwa cells (ELISA); conditions: 1 mM 2-AP; 20 mM PMA priming 20 hr, 200 μg/ml poly I:C induction 3 days; FIG. 2B
Method: as §1

[3] = system: PKR-overexpressing Namalwa cells (Nam-PKR), IFN-alpha production; experiment: Dose-response inhibition of IFN-alpha production in PMA and poly r(I):poly r(C) treated PKR-overexpressing Namalwa cells; conditions: FIG. 3

## Nc1ncc2[nH]cnc2n1 [2-AP, 2-aminopurine]
[1]
  suppression of TNF-alpha production level, with vs without the PKR inhibitor: about 4 fold
[1]; listed as 2 AP
  suppression of TNF-alpha production level, with vs without the PKR inhibitor: 4 fold
[2]
  suppression of TNF-beta production level, with vs without the PKR inhibitor: 5 fold
[3]; 1 mM 2-AP, both experiments
  inhibition of IFN-alpha production at 1 mM (in words): relatively ineffective
[3]; 8 mM 2-AP
  inhibition of IFN-alpha production at 8 mM (in words): completely inhibited
[3]; first experiment
  inhibition of IFN-alpha at 5 mM relative to 1 mM: 360 fold
[3]; second experiment
  inhibition of INF-alpha production between 1 mM and 5 mM: 5 fold
